Results as given in US20150269307A1, “TARGET INHIBITION MAP SYSTEM FOR COMBINATION THERAPY DESIGN AND METHODS OF USING SAME” (Texas Tech University System, priority 2014, published 2015).
Where two headings read alike, the source gives them in different places.

Tests used:
[1] = system: human patient-derived xenografts; assay: Xenograft-derived chemical screen (Supplemental Table 3); assay type: cell-based; settings: 60 agent PPTI screen; for IC50: read-out: IC50 Value
Description: Three chemical screens were applied to the U23674 primary tumor cell culture. […] The target inhibition profile is a quantified description of the inhibitory properties of the compound on the numerous protein targets preset on the PPTI screen.
To screen the chemical agents, cell cultures were plated in 384 well plates at a seeding density of 2000 cells per well over graded concentrations of the numerous compounds. The chemical concentrations were between 10 nM and […] depending on the activity range of the compounds. The cells were incubated in DMEM supplemented with 1% penicillin streptomycin, and 10% fetal bovine serum for 72 hours. Chemical sensitivity was determined by an MTS cell viability assay after the 72 hour incubation period. The sensitivity responses at the different concentrations were used to determine the chemical IC50 using a hill curve fitting algorithm with variable hill slope coefficients.

DIPG neurospheres = assay: cells; settings: for IC50: 48 h, read-out: In Vitro Absolute IC50; for viability at 10 µM: read-out: cell viability (cytocidal)
Description: Primary cultures of DIPG neurospheres were added to 384 well plates pre-plated with 60 known drugs in an increasing gradient of concentrations. […] To complete this drug screen, primary cultures of nestin […] 53 deficient DIPG neurospheres were added to plates with 60 known drug samples in an increasing gradient of concentrations.

| IC50 Value [1] | IC50 ([1]; Homo sapiens) [µM] | Structure (SMILES) | further results |
| --- | --- | --- | --- |
| >conc tested | – | CS(=O)(=O)c1ccc(C(=O)Nc2ccc(Cl)c(-c3ccccn3)c2)c(Cl)c1 [vismodegib] | – |
| >conc tested | – | CO[C@H]1C[C@@H]2CC[C@@H](C)[C@@](O)(O2)C(=O)C(=O)N2CCCC[C@H]2C(=O)O[C@H]([C@H](C)C[C@@H]2CC[C@@H](OC(=O)C(C)(CO)CO)[C@H](OC)C2)CC(=O)[C@H](C)/C=C(\C)[C@@H](O)[C@@H](OC)C(=O)[C@H](C)C[C@H](C)/C=C/C=C/C=C/1C [temsirolimus] | – |
| >conc tested | – | CS(=O)(=O)CCNCc1ccc(-c2ccc3ncnc(Nc4ccc(OCc5cccc(F)c5)c(Cl)c4)c3c2)o1 [lapatinib] | – |
| >conc tested | – | CC1=C(/C=C/C(C)=C/C=C/C(C)=C/C(=O)O)C(C)(C)CCC1 [tretinoin] | – |
| >conc tested | – | Cc1cn(-c2cc(NC(=O)c3ccc(C)c(Nc4nccc(-c5cccnc5)n4)c3)cc(C(F)(F)F)c2)cn1 [nilotinib] | – |
| >conc tested | – | Nc1cccc2c1CN(C1CCC(=O)NC1=O)C2=O (centres unmarked) [lenalidomide] | – |
| – | 5.15 | COc1cc(Nc2ncc(F)c(Nc3ccc4c(n3)N(COP(=O)(O)O)C(=O)C(C)(C)O4)n2)cc(OC)c1OC [fostamatinib] | – |
| >conc tested | – | COc1nc(C)cnc1NS(=O)(=O)c1cccnc1-c1ccc(-c2nnco2)cc1 [zibotentan] | – |
| >conc tested | – | Cc1cc(Nc2cc(N3CCN(C)CC3)nc(Sc3ccc(NC(=O)C4CC4)cc3)n2)[nH]n1 [tozasertib] | – |
| – | 6.13 | CNC(=O)c1cc(Oc2ccc(NC(=O)Nc3ccc(Cl)c(C(F)(F)F)c3)cc2)ccn1 [sorafenib] | – |
| >conc tested | – | C[C@]1(c2nc3c(C(N)=O)cccc3[nH]2)CCCN1 [veliparib] | – |
| – | 3.04 | COc1cc2c(Nc3ccc(Br)cc3F)ncnc2cc1OCC1CCN(C)CC1 [vandetanib] | – |
| >conc tested | – | CCOc1cc2ncc(C#N)c(Nc3ccc(F)c(Cl)c3)c2cc1NC(=O)/C=C/CN(C)C [pelitinib] | – |
| – | 0.245 | Cc1[nH]c2ccccc2c1CCNCc1ccc(/C=C/C(=O)NO)cc1 [panobinostat] | – |
| – | 4.92 | CCN(CC)CCCC(C)Nc1c2ccc(Cl)cc2nc2ccc(OC)cc12 (centres unmarked) [quinacrine] | – |

More lines, now with the values behind:

| Structure (SMILES) | IC50 Value [1] | IC50 ([1]; Homo sapiens) [µM] | further results |
| --- | --- | --- | --- |
| CC(C)(C)c1cnc(CSc2cnc(NC(=O)C3CCNCC3)s2)o1 [SNS-032] | >conc tested | – | IC50 (DIPG neurospheres): 0.505 µM; viability at 10 µM (DIPG neurospheres): < 15% |
| CC(C)[C@H]1C(=O)N[C@@H](CCCN=C(N)N)C(=O)NCC(=O)N[C@@H](CC(=O)O)C(=O)N[C@H](Cc2ccccc2)C(=O)N1C [cilengitide] | >conc tested | – | – |
| C[C@@H](Oc1cc(-c2cnn(C3CCNCC3)c2)cnc1N)c1c(Cl)ccc(F)c1Cl [Crizontinib, crizotinib] | – | 5.14 | IC50 (DIPG neurospheres): 6.23 µM; viability at 10 µM (DIPG neurospheres): < 15% |
| CCNC(=O)c1noc(-c2cc(C(C)C)c(O)cc2O)c1-c1ccc(CN2CCOCC2)cc1 [AUY922] | – | 1.03 | – |
| N#Cc1ccc(COC[C@H]2O[C@@H](n3c(NCc4ccc(Cl)c(Cl)c4)nc4c(N)ncnc43)[C@H](O)[C@@H]2O)cc1 [VER-155008] | >conc tested | – | – |
| CN(C)CC[C@H](CSc1ccccc1)Nc1ccc(S(=O)(=O)NC(=O)c2ccc(N3CCN(Cc4ccccc4-c4ccc(Cl)cc4)CC3)cc2)cc1[N+](=O)[O-] [ABT-737] | – | 2.66 | – |
| CC(C)C[C@H](NC(=O)[C@H](CCc1ccccc1)NC(=O)CN1CCOCC1)C(=O)N[C@@H](Cc1ccccc1)C(=O)N[C@@H](CC(C)C)C(=O)[C@@]1(C)CO1 [Carfilzomib] | – | 0.86 | IC50 (DIPG neurospheres): 0.834 µM; viability at 10 µM (DIPG neurospheres): < 15% |
| CCOc1cc(/C=C2/C(=O)N(c3ccccc3)N=C2C)cc(Cl)c1OCC(=O)OC [SJ-172550] | >conc tested | – | – |
| Cn1c(=O)n(-c2ccc(C(C)(C)C#N)cc2)c2c3cc(-c4cnc5ccccc5c4)ccc3ncc21 [BEZ235] | >conc tested | – | – |
| COc1cc(Nc2ncc3c(n2)-c2ccc(Cl)cc2C(c2c(F)cccc2OC)=NC3)ccc1C(=O)O [alisertib] | >conc tested | – | – |
| NC1(c2ccc(-c3nc4ccn5c(=O)[nH]nc5c4cc3-c3ccccc3)cc2)CCC1 [MK-2206] | – | 5.49 | – |
| COc1cc2c(Oc3ccc4[nH]c(C)cc4c3F)ncnc2cc1OCCCN1CCCC1 [cediranib] | >conc tested | – | – |
| CNC(=O)CN1CCC(Oc2cc3c(Nc4cccc(Cl)c4F)ncnc3cc2OC)CC1 [AZD-8931] | >conc tested | – | – |
| NC(=O)c1ccc(-c2nc(-c3ccc4c(c3)OCO4)c(-c3ccccn3)[nH]2)cc1 [SB-431542] | >conc tested | – | – |
| COC1=CC(c2cc3ccccc3[nH]2)=N/C1=C\c1[nH]c(C)cc1C [Obatoclax] | – | – | IC50 (DIPG neurospheres): 0.159 µM; viability at 10 µM (DIPG neurospheres): < 15% |
| CN(c1ncccc1CNc1nc(Nc2ccc3c(c2)CC(=O)N3)ncc1C(F)(F)F)S(C)(=O)=O [PF-562271] | >conc tested | – | – |
| CC(C)C[C@H](NC(=O)[C@H](Cc1ccccc1)NC(=O)c1cnccn1)B(O)O [bortezomib] | – | 0.821 | – |
| CC1=C(/C=C/C(C)=C/C=C/C(C)=C/C(=O)Nc2ccc(O)cc2)C(C)(C)CCC1 [fenretinide] | >conc tested | – | – |
| CC(C)(C(=O)NCC(F)(F)C(F)(F)F)C(=O)N[C@@H]1C(=O)Nc2ccccc2-c2ccccc21 [RO4929097] | >conc tested | – | – |
| CN(C)c1ccccc1CN1CCCN(Cc2ccccc2N(C)C)C1c1ccncc1 [GANT61] | – | – | IC50 [1]: 7.38 µM |
| Cn1cc(C2=C(c3cn(C4CCN(Cc5ccccn5)CC4)c4ccccc34)C(=O)NC2=O)c2ccccc21 [enzastaurin] | >conc tested | – | – |
| CCCC(=O)[O-].[Na+] [sodium butyrate] | >conc tested | – | – |
| CN1CC[C@H](c2c(O)cc(O)c3c(=O)cc(-c4ccccc4Cl)oc23)[C@H](O)C1 [alvocidib] | >conc tested | – | – |
| Nc1ccccc1NC(=O)c1ccc(CNC(=O)OCc2cccnc2)cc1 [entinostat] | – | 1.79 | – |
| CCN(CC)CCNC(=O)c1c(C)[nH]c(/C=C2\C(=O)Nc3ccc(F)cc32)c1C [Sunitinib] | – | – | IC50 (DIPG neurospheres): 6.92 µM; viability at 10 µM (DIPG neurospheres): < 15% |
| CC(=O)N[C@@H](CS)C(=O)O [NAC, N-acetyl cysteine] | >conc tested | – | – |
| COc1cc2nc(N3CCCN(C)CC3)nc(NC3CCN(Cc4ccccc4)CC3)c2cc1OC [BIX-01294] | – | 6.81 | IC50 (DIPG neurospheres): 3.95 µM; viability at 10 µM (DIPG neurospheres): < 15% |
| CC(/C=C/C(=O)NO)=C\[C@@H](C)C(=O)c1ccc(N(C)C)cc1 [trichostatin A] | – | – | IC50 [1]: 5.52 µM |
